Key:
murine podocytes = test: Podocyte HCS phenotypic assay, PAN-induced podocyte injury; assay type: cell-based
Experimental: Conditionally immortalized human and murine podocytes were used in a majority of the assays. Human and murine podocytes were cultured as have been described previously (Saleem et al., JASN 13, 630-638 (2002); Mundel, Reiser et al., Experimental Cell Research, 236, p 248 (1997)). For example, murine podocytes derived from the mouse line H-2Kb-tsA58 were cultured under permissive conditions at 33° C. on rat-tail collagen coated dishes in RPMI medium supplemented with 10% heat inactivated FBS, penicillin and streptomycin (100 U/ml), and 10 U/ml recombinant mouse γ-interferon. Cells were then trypsinized and re-plated for differentiation at 37° C. in medium without γ-interferon. The cells were differentiated for 0 to 7 days and then reseeded to rat-tail collagen coated multi-well plates at a density of 1500/well or 500/well for 96 and 384 well plates, respectively. Cells were then further differentiated for another 5-14 days in the multi-well plates for subsequent experimentation with various reagents prior to fixation and analyses.
In some embodiments, podocytes were cultured at 37° C. for the first 7 days of differentiation in large tissue culture flasks and subsequently reseeded and further cultured at 37° C. in the 96-well assay plates for the next 4-6 days to provide low well-to-well variability in cell number in the assay plates and healthy podocytes expressing specific and well characterized podocyte markers synaptopodin and podocin.
Differentiated podocytes were cultured in 96-well or 384-well multiwall optical plates (PerkinElmer, Boston, Mass.). In some embodiments, differentiated podocytes were treated with various amounts of puromycin aminonucleoside (PAN), […] LPS, Adriamycin and other agents. In some embodiments, the cells were co-treated with chemical and other agents (such as mizouribine) to prevent damage from damaging agents (such as PAN). In other embodiments, the rescue agents were added 0-48 h after the addition of injury causing agents. In some embodiments, patient samples such as blood, serum, urine or other samples were added to differentiated podocytes to identify disease causing agents. In some embodiments, primary, differentiated patient podocytes were cultured to identify defects in structure and/or function.
After culturing for the appropriate time and treatment or control, cultured podocytes in multi-well optical plates were rinsed with phosphate buffered saline (PBS) and subsequently fixed using a solution of paraformaldehyde and sucrose in PBS (at a final concentration of 4% paraformaldehyde and 2% sucrose in PBS) for 30 min at room temperature. Following fixation, the cells were permeabilization using a solution of 0.3% Triton X-100 in PBS for 15 min at room temperature. For visualization of filamentous-actin (F-Actin) in cells, cells were stained with a solution of Alexa fluor 568 phalloidin (Invitrogen), as previously described. HCS CellMask Blue (Invitrogen) was used as a fluorescent stain for visualizing nuclei, cytoplasm and the individual cell boundaries. Additional proteins that were fluorescently labeled and analyzed using appropriate primary mAbs include synaptopodin (synpo, primary mAb from Santa Cruz), Paxillin (primary mAb clone Y113 from Millipore) for quantitation of focal adhesions, beta1 integrin, podocin, WT1 nephrin, CD2-AP may also be used. Other proteins may also be used for labeling. Appropriate secondary antibodies (fluorescently labeled) were used for fluorescent visualizations. High throughput confocal microscopy was done using the Opera LX (Perkin Elmer) with filters and exposure times according to manufacturer's instructions and as described before. Images were used in subsequent image analysis for quantitation of a variety of cellular parameters. Assays were performed in replicate wells for assay robustness.
Images for each frame of each well in multiple fluorescent channels were acquired using OPERA imaging system. […]

human β1 integrin = biological target: T1, human β1 integrin (Homo sapiens, UniProt P05556); test: Active β1 integrin (antibody 12G10) in PAN-treated human podocytes; assay type: cell-based; conditions: PAN treatment (FIG. 9D)
T1 construct: endogenous in cells; host or cells: conditionally immortalized human podocytes (Saleem et al. 2002)
Description: FIG. 9A-9E. An An β1-integrin agonist pyrintegrin (pyr) protects podocytes from damage. (A) The published chemical structure of pyr. (Xu et al. PNAS, 2010.) (B-D) Pyr protects podocytes from PAN-induced loss of F-actin fibers and focal adhesions and enhances active β1-integrin levels. (B) Graphs showing the effect of pyr on the number of F-actin fibers per cell and the number of vinculin spots per cell under each treatment condition. Data shown are means 6 SEMs per cell from three replicate wells (n=500-1000 cells per well). **P, 0.01; ***P, 0.001; ****P, 0.001. (C) Representative fluorescence images of murine podocytes after various treatments and after staining with phalloidin and antiactive β1 antibody. […] (D) Representative fluorescence images of human podocytes after various treatments as shown. […] Representative images (left panel) and a bar graph (right panel) showing confocal microscopy-based quantitation of the number of migrating podocytes in a scratch wound-healing assay Lines represent the wound margins at the beginning of the experiment (0 hours). […]
Integrin-α3β1 is highly expressed in podocytes and primarily binds to the GBM-expressed ligand laminin, thereby mediating stable adhesion of podocytes to the GBM. […] Given that pyrintegrin affects integrin-β1, (Xu et al., PNAS, 2010.) we quantified the level of β1 in treated cells. […]

T1 sequence (P05556 21-798): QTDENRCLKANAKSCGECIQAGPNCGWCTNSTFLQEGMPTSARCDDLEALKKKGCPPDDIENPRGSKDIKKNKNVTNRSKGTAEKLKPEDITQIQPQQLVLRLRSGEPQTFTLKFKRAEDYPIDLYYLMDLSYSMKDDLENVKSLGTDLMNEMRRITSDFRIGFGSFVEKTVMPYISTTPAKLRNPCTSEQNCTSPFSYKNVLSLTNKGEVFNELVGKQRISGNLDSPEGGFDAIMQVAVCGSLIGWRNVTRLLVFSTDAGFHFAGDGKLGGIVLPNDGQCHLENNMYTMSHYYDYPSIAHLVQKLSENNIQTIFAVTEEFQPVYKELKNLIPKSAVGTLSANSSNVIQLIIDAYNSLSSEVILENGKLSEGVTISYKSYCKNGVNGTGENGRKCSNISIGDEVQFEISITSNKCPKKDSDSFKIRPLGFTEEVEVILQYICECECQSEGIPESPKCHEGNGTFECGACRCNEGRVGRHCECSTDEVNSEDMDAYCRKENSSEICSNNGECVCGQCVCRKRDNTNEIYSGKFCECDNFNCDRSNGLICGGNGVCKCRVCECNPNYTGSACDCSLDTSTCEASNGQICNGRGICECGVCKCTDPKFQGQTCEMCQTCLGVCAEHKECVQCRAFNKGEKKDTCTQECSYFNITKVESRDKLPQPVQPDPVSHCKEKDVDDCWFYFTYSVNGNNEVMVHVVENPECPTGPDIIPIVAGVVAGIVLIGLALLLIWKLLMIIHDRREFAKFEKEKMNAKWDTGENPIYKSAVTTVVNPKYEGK
T1 sequence (P26006 33-1051 partner): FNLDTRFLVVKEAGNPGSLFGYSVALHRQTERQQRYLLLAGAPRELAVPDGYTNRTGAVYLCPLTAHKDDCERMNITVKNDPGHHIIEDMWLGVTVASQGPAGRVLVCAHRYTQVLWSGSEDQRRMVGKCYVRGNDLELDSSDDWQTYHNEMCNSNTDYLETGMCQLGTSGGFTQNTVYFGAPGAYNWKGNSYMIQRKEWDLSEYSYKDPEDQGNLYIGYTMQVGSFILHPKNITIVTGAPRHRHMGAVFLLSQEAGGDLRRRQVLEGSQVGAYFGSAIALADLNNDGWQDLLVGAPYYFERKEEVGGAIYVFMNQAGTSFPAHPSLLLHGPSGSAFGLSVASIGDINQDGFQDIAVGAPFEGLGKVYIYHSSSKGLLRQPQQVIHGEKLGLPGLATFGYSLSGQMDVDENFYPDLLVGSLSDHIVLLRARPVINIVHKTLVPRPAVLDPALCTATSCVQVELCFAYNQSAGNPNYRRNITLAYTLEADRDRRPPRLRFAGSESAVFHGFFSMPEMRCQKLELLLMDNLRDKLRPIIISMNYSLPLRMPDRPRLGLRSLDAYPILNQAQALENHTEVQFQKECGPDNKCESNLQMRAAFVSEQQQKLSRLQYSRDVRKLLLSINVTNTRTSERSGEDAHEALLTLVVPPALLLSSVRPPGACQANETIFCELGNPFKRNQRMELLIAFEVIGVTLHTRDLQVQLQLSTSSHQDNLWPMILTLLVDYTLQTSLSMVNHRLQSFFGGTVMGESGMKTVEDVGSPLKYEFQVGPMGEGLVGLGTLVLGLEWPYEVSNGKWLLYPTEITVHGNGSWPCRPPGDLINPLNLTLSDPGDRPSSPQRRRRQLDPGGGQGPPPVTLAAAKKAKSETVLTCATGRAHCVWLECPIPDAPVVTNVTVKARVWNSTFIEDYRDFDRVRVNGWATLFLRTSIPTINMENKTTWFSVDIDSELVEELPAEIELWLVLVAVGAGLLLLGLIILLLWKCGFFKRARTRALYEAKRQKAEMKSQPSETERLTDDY

level of active β1 integrin in human podocytes (antibody 12G10) (human β1 integrin): rescued
SMILES: O=S(=O)(NCC1CC1)c1ccc(Nc2nccc(N3CCCc4cc(O)ccc43)n2)cc1 [Pyrintegrin]
prevention of PAN induced injury, dose-response of percent damaged cells (FIG. 4A-4P) (murine podocytes; 30 ug/ml PAN, co-treatment, multi-parameter algorithm): prevented PAN induced injury
EC50 (murine podocytes; PAN 16 μg/ml, 48 hours, F-actin fibers per cell (FIG. 8), read-out: apparent half-maximal effective concentration (EC50), protection from PAN-induced damage): 800 nM
dose-dependent protection of podocytes from PAN-induced injury (murine podocytes; PAN 16-30 μg/ml, 48 hours, F-actin fibers and other parameters): dose dependently protected
loss of actin stress fibers and focal adhesion complexes on PAN-induced injury (murine podocytes; PAN cotreatment (FIG. 9B)): protected podocytes from the loss of actin stress fibers and focal adhesion complexes
actin stress fibers in healthy cells (murine podocytes; healthy cells, no PAN): small but significant increase in actin stress fibers
